Results from patent publication US11732259B2, “Peptide oligonucleotide conjugates” (Sarepta Therapeutics, Inc., priority 2011, dated 2023).
{EG3} = triethylene glycol 5' cap structure on the morpholino oligomer

How the values were obtained:
[1] = test system: exon 23 of the dystrophin gene; conditions: in vivo; cited from earlier work
dystrophin mRNA exon 23 = experiment: Exon 23 skipping in MDX mice, end-point PCR on muscle RNA
Description: MDX mice were dosed once (50 mg/kg) by tail vein injection with one of the following conjugates:
One week post-injection, the MDX mice were sacrificed and RNA was extracted from various muscle tissues. End-point PCR was used to determine the relative abundance of dystrophin mRNA containing exon 23 and mRNA lacking exon 23 due to antisense-induced exon skipping. Percent exon 23 skipping is a measure of antisense activity in vivo.

[2] = type: in vivo, mouse
Description: Mice were treated with the conjugates described in Example 30, and KIM-1 levels, BUN levels and survival rate were determined according to the general procedures described in Example 32 below and known in the art. […]. The day of dosing on the study was designated as Study Day 1. Conjugate was administered via tail vein as a slow push bolus (˜5 seconds). All animals were dosed over two days. Groups 1-8 were dosed on the first day and Groups 9-16 were dosed on the second day. Treatment Groups (TG) 13-16 were dosed per the table above. […] The first 2 TG of each conjugate were dosed per the table above. If all animals in 100 mg/kg group died then the remaining TGs of that test article would not be dosed and the study would end. If at least one animal survived 2 hours post-dose in the 100 mg/kg group, then the 150 mg/kg group was dosed. If all animals in the 150 mg/kg group died then the remaining TGs of that test article would not be dosed and the study would end. […]
Any animal showing signs of distress, particularly if death appeared imminent was humanely euthanized according to Numira Biosciences Standard Operating Procedures. Body weights were recorded on the day after arrival, the day of dosing, and the day of necropsy. Detailed clinical observations were conducted and recorded at 0 minutes, 15 minutes, and 2 hours post-dose to assess tolerability of injections.

KIM-1 = type: in vivo, mouse; conditions: Example 32, FIG. 10; C57/BL6 mice, single i.v. tail vein injection, kidney qRT-PCR vs GAPDH
Description: Mice were treated with the conjugates described in Example 30, and KIM-1 levels, BUN levels and survival rate were determined according to the general procedures described in Example 32 below and known in the art. […]. The right and left kidneys were collected. Tissues were collected within minutes or less of euthanasia. All instruments and tools used were changed between treatment groups. All tissues were flash frozen and stored at <−70° C. as soon as possible after collection.
Kidney injury marker data was obtained as follows. RNA from mouse kidney tissue was purified using Quick Gene Mini80 Tissue Kit SII (Fuji Film). Briefly, approximately 40 mg of tissue was added to 0.5 ml lysis buffer (5 μl […] in 0.5 ml lysis buffer) in a MagnaLyser Green Bead vial (Roche) and homogenized using MagNA Lyser (Roche) with 2 sets of 3×3800 RPM and 3 sets of 1×6500 RPM.
Samples were cooled on ice 3-4 minutes between each low speed set and between each higher speed run. Homogenates were centrifuged 5 minute at 400×g at room temperature. The homogenate was immediately processed for RNA purification according to the Quick Gene Mini80 protocol. […] Total RNA was quantitated with a NanoDrop 2000 spectrophotometer (Thermo Scientific). […]
Analysis was performed using ΔΔCt method. […] Fold change range calculated: 2^−(ΔΔCt+SD) to 2^−(ΔΔCt-SD). […]

RSV [3] = conditions: cultures of two human airway cell lines (Lai, Stein et al. 2008); cited from earlier work
RSV [4] = conditions: BALB/c mice, intranasal treatment before RSV inoculation, cited from earlier work

Substance: 5′-EG3-M23D-BX(RXRRBR)2 (GGCCAAACCTCGGCTTACCTGAAAT; all phosphorodiamidate morpholino (PMO), 5' {EG3}; morpholino, carrier peptide BX(RXRRBR)2 conjugated at 3' end) [AVI-5225]
- Activity in the MDX mouse model for DMD [1]: activity
- Dose response of exon 23 skipping (dystrophin mRNA exon 23; one week post-treatment, AVI-5225 compared with the other conjugates): similar

Substance: 5′-EG3-M23D-G(R)6 [NG-11-0009]
- Doses at which all mice survived ([2]; Example 31, data not shown): up to 400 mg/kg
- KIM concentrations (KIM-1): lowest
- Percent exon 23 skipping, diaphragm (dystrophin mRNA exon 23; dosed once 50 mg/kg tail vein, one week post-injection, diaphragm (FIGS. 5B, 6B), amongst the arginine series): highest efficacy
- Percent exon 23 skipping, quadriceps (dystrophin mRNA exon 23; dosed once 50 mg/kg tail vein, one week post-injection, quadriceps (FIGS. 5A, 6A), amongst the arginine series): highest efficacy

Substance: 5′-EG3-M23D-G(R)8 [NG-11-0216]
- Survival rate ([2]; Example 31, FIG. 7B, compared with the XB linked conjugate / amongst the arginine polymers): least tolerated of the arginine polymers

Substance: TAATGGGATCCATTTTGTCCC (all phosphorodiamidate morpholino (PMO); peptide-conjugated morpholino (PPMO), peptide not given here) [RSV-AUG-2, peptide conjugated PMO (PPMO) targeting the translation start-site region of RSV L mRNA]
- Reduction of viral titers (RSV [3]): > 2.0 log10
- Reduction in viral titer in lung tissue (RSV [4]; day 5 postinfection): 1.2 log10
- Pulmonary inflammation (RSV [4]; day 7 postinfection): attenuated
